Data published in BindingDB's records for patent US20250214965 (Hangzhou Innogate Pharma, 2025).

Target: T1, Kinesin-like protein KIF18A (Homo sapiens, UniProt Q8NI77)
T1 sequence (Q8NI77 whole entry): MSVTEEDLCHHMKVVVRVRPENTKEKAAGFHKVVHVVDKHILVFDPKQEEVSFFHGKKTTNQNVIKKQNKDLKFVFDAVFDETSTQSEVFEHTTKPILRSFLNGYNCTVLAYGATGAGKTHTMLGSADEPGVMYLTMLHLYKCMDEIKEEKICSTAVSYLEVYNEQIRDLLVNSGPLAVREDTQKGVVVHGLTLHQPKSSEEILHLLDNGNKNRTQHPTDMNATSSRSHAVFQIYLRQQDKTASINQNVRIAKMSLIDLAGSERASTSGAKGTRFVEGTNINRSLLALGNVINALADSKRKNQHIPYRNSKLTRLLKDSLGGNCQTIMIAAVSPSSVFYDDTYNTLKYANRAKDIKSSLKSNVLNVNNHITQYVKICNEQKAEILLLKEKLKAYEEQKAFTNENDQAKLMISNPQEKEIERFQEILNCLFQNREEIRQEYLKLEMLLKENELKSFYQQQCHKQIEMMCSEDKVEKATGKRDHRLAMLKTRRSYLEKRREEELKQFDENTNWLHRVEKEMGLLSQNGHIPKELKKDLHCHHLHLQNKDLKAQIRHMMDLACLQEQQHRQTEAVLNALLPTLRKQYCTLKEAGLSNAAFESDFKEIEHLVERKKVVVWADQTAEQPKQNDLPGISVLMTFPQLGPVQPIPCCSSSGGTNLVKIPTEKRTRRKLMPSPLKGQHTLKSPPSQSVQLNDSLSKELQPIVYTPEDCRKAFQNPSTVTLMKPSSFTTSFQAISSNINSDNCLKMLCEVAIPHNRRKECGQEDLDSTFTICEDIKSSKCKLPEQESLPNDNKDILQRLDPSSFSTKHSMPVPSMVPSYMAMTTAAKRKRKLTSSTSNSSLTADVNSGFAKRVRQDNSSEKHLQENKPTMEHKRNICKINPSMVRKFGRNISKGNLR
Assay: Inhibition of KIF18A Enzyme Activity
Procedure: The ADP-Glo method was used to test the enzymatic activity of KIF18A. The compound was diluted 3-fold with DMSO at a starting concentration of 3000 nM, for a total of ten concentrations, and tested in duplicate. Echo was used to transfer 25 nL of the diluted compound to a 384-well plate, and 2.5 μL of enzyme working solution was added. Plate was centrifuged at 1000 rpm for 1 min, and incubated at 25° C. for 10 min. 2.5 μL of ATP and substrate solution was added to start the reaction, and plate was incubated at 25° C. for 60 min. 4 μL of ADP-Glo solution was added to the 384-well plate, and plate was incubated at 25° C. for 40 min. 8 μL of detection solution was added and incubated at 25° C. for 40 min, and BMG was used to read the […] value. Inhibition rate was calculate according to the following formula: Inhibition rate (%)=(DMSO well−compound well)/(DMSO well−blank control well)×100%. The IC50 value of each compound was analyzed using the nonlinear regression method of XLFit 5.5.0 software. The formula is: Y=Bottom+(Top−Bottom)/(1+10^((Log IC50−X)*HillSlope)).

Row | Compound | IC50
1 | Cc1cc(NC(=O)c2ccc(NS(=O)(=O)[C@H](C)CO)cc2N2CCC(=C(F)F)CC2)nc(N2CCC(F)(F)CC2)n1 [US20250214965, Compound 68] | < 50 nM
2 | Cc1cc(NC(=O)c2ccc(NS(=O)(=O)[C@@H](C)CO)cc2N2CCC(=C(F)F)CC2)nc(N2CCC(F)(F)CC2)n1 [US20250214965, Compound 69] | < 100 nM
3 | Cc1cc(NC(=O)c2ccc(NS(=O)(=O)CCO)cc2N2CCC(=C(F)F)CC2)nc(N2CCC(F)(F)CC2)c1F [US20250214965, Compound 79] | < 50 nM
4 | Cc1cc(NC(=O)c2ccc(NS(=O)(=O)[C@H](C)CO)cc2N2CCC(=C(F)F)CC2)nc(N2CCC(F)(F)CC2)c1 [US20250214965, Compound 82] | < 50 nM
5 | Cc1cc(NC(=O)c2ccc(NS(=O)(=O)CCO)cc2N2CCC3(CC2)CC3)nc(N2CCC(F)(F)CC2)c1F [US20250214965, Compound 85] | < 50 nM
